Data from patent publication US12102104B2, “Carbonation sensation enhancing agent for foods and beverages having carbonate stimulation” (Ogawa & Co., Ltd., priority 2018, dated 2024).

Assays:
expert panelists [1] = experiment: Test Example 2: sensory comparison of polygodial with known carbonation sensation enhancing agents; assay type: in vivo, human
Protocol: Sensory evaluation of the samples of Example 4 and Comparative Examples 3 to 11 was performed by 10 expert panelists based on the following Evaluation criteria 1 to 3 using the carbonated water for evaluation of Preparation Example 1 as a control.
[Evaluation Criteria 1] (Strength of Carbonate Stimulation)
(Mode of Generation of Carbonate Stimulation)
Mode of generation of carbonate stimulation was defined as follows and the timing when the highest effect was felt was selected. The timing that won a majority (6 panelists or more) was regarded as the mode of generation of carbonate stimulation of the substance. In the case of a tie (5 panelists for each), the result was referred to as middle.
Initial: stimulation felt immediately after the sample was put in one's mouth. The impact at the moment when one took the sample.
Last: stimulation felt after swallowing the sample. Aftertaste and feeling when going down. Delayed effect.
[Evaluation Criteria 3] (Characteristics of Flavor)
Majority opinions were obtained from panelists' free descriptions of characteristics of flavor they felt.

expert panelists [2] = experiment: Test Example 3: equivalent carbon dioxide gas pressure by paired comparison; assay type: in vivo, human; conditions: base 1.3 kg/cm^2, polygodial 10 ppb (Example 7)
Text: The strength of carbonate stimulation of the carbonated water of Example 7 prepared by adding the Persicaria hydropiper extract of Production Example 1 to the carbonated water for evaluation of Preparation Example 1 (1.3 kg/cm^2) and the strength of carbonate stimulation of the carbonated waters described in Table 3 (1.4 kg/cm^2, 1.6 kg/cm^2, 1.9 kg/cm^2) separately prepared as a control were compared by 18 to 20 expert panelists. The number of panelists who judged that the carbonated water of Example 7 had strong carbonation and the selectivity of the carbonated water of Example 7 are shown in Table 3.
Furthermore, the relation between the concentration of carbon dioxide gas in the control product and the selectivity of the carbonated water of Example 7 was plotted (see FIG. 1).
Thus, it is considered that addition of polygodial has the same effect as increasing the pressure of carbon dioxide gas by 0.3 kg/cm^2.

[3] = Decomposition of polygodial on distillation; assay type: physicochemical; conditions: yield significantly reduced
Text: Thus, distillation needs to be performed under reduced pressure using a known vacuum pump such as oil rotary pump, a mechanical booster pump and a diffusion pump.

expert panelists [4] = experiment: Test Example 1: sensory evaluation of carbonated water with polygodial; assay type: in vivo, human
Protocol: Carbonated water for evaluation was prepared by diluting commercially available carbonated water (pressure of carbon dioxide gas before opening 3.0 kg/cm^2) with water such that the pressure of carbon dioxide gas was 1.3 kg/cm^2.
Polygodial (manufactured by Wako Pure Chemical Industries, Ltd.) was added to the carbonated water for evaluation of Preparation Example 1 such that the concentration was as shown in Table 1 described later and this was referred to as Comparative Examples 1 and 2, and Examples 1 to 6.
20 ppm of the Persicaria hydropiper extract of Production Example 1 was added to the carbonated water for evaluation of Preparation Example 1 and this was referred to as Example 7.
0.05 ppm of Tasmannia lanceolata oil (manufactured by ESSENTIAL OILS OF TASMANIA PTY LTD, polygodial content 20%) was added to the carbonated water for evaluation of Preparation Example 1 and this was referred to as Example 8. […]
Sensory evaluation was performed by 10 expert panelists based on the following Evaluation criteria using a product to which polygodial was not added as a control. For the strength of an offensive taste and odor, the average of the score of the 10 panelists was calculated and determined as the result of evaluation. […]

SMILES	Timing of the effect of enhancing carbonation sensation (expert panelists [1])	Increase of pressure of carbon dioxide gas having the same effect as addition (expert panelists [2]) [kg/cm^2]	Evaporating temperature at which polygodial is decomposed [3]	Enhancement of carbonation sensation (expert panelists [4]; polygodial 0.01 ppb)	Enhancement of carbonation sensation and pungency (expert panelists [4]; polygodial 400 ppb)
CC1(C)CCC[C@]2(C)[C@@H](C=O)C(C=O)=CC[C@@H]12 [polygodial, (1R,4aS,8aS)-5,5,8a-trimethyl-1,4,4a,6,7,8-hexahydronaphthalene-1,2-dicarboxaldehyde]	immediate effect	0.3	more than 150 °C	not enhanced	pungency appeared with enhanced carbonation sensation
C/C=C/C=C\CC/C=C/C(=O)NCC(C)C [spilanthol, (2E,6Z,8E)-N-Isobutyl-2,6,8-decatrienamide, reference compound]	relatively delayed	–	–	–	–
